Test results reported in patent US9006295B2, “Process for bacterial stabilizing of aqueous ground natural calcium carbonate and/or precipitated calcium carbonate and/or dolomite and/or surface-reacted calcium carbonate-comprising mineral preparations” (Omya International AG, priority 2009, dated 2015).
Entries after “also recorded” stand apart in the source; their conditions may differ.

Legend:
Pseudomonas aeruginosa = conditions: in combination with 500 ppm of triazine biocide; TSB-based plates; cited from earlier work
[1] = test system: mixture of Pseudomonas species containing predominantly Pseudomonas putida and Pseudomonas stutzeri; experiment: Biocidal activity in slurry (Total Viable Count after inoculation); format: cell-based; conditions: GNCCS1 slurry; Tables 1, 2 and 4
Experimental: (§1) All quoted bacterial counts (Total Viable Count (TVC) values are in cfu/ml) in the Tables herebelow are determined after 5 days following plate-out and in accordance with counting method described in “Bestimmung von aeroben mesophilen Keimen”, Schweizerisches Lebensmittelbuch, chapter 56, section 7.01, edition of 1985, revised version of 1988.
Biocide mixture 1 (BM1) is an aqueous solution containing 24% by weight of GDA and 1.5% by weight of a combination of CIT and MIT (in a weight ratio CIT:MIT of 3:1), relative to the total solution weight. BM1 and AMP were introduced into 50 g samples of each of the slurries indicated in Table 1 in the listed amounts (quoted in ppm based on the weight of the aqueous phase in the slurry). References were prepared according to the same protocol but in absence of AMP and in absence of AMP and BM1.
The slurry samples were then inoculated with 1 ml of a mixture of Pseudomonas species containing predominantly Pseudomonas putida and Pseudomonas stutzeri. Each of the samples was incubated at 30° C. for 72 hours. Thereafter, a 1:10 dilution in phosphate buffered saline (PBS) was plated on plate count agar (PCA). These plates were incubated at 30° C. and analysed after 5 days. […]

[2] = test system: mixture of Pseudomonas species containing predominantly Pseudomonas putida and Pseudomonas stutzeri that are resistant to BM2; experiment: Biocidal activity in slurry, BM2-resistant bacteria; format: cell-based; conditions: GNCCS1 slurry
Experimental: as §1
BM2 and AMP were introduced into 50 g samples of each of the slurries indicated in Table 5 in the listed amounts (quoted in ppm based on the weight of the aqueous phase in the slurry). A reference was prepared according to the same protocol but in absence of AMP. References were prepared according to the same protocol but in absence of AMP and in absence of AMP and BM2.
(§2) The slurry samples were then inoculated with 1 ml of a mixture of Pseudomonas species containing predominantly Pseudomonas putida and Pseudomonas stutzeri that are resistant to BM2. Each of the samples was incubated at 30° C. for 72 hours. Thereafter, a 1:10 dilution in phosphate buffered saline (PBS) was plated on plate count agar (PCA). These plates were incubated at 30° C. and analysed after 5 days.
Biocide mixture 2 (BM2) is an aqueous solution containing 85% by weight of EGHF and 1.5% by weight of a combination of CIT and MIT (in a weight ratio CIT:MIT of 3:1), relative to the total solution weight. […]

[3] = test system: mixture of Pseudomonas species containing predominantly Pseudomonas putida and Pseudomonas stutzeri that are resistant to OPP; experiment: Biocidal activity in slurry, OPP-resistant bacteria; format: cell-based; conditions: GNCCS1 slurry
Experimental: as §1
OPP, in the form of an aqueous solution having a concentration of 45%, and MEA were introduced into 50 g samples of each of the slurries indicated in Table 11 in the listed amounts (quoted in ppm active content based on the weight of the aqueous phase in the slurry). A reference was prepared according to the same protocol but in absence of MEA. References were prepared according to the same protocol but in absence of MEA and in absence of MEA and OPP.
as §2, with “OPP.” for “BM2.”
Test 59 below represents the same slurry as Test 58, but following a second inoculation of 1 ml of a mixture of Pseudomonas species. […]

[4] = test system: mixture of Pseudomonas species containing predominantly Pseudomonas putida and Pseudomonas stutzeri that are resistant to BM1; experiment: Biocidal activity in slurry, BM1-resistant bacteria; format: cell-based; conditions: GNCCS1 slurry
Experimental: as §1
BM1 and AMP were introduced into 50 g samples of each of the slurries indicated in Table 3 in the listed amounts (quoted in ppm based on the weight of the aqueous phase in the slurry). References were prepared according to the same protocol but in absence of AMP and in absence of AMP and BM1.
as §2, with “BM1.” for “BM2.”
Biocide mixture 1 (BM1) is an aqueous solution containing 24% by weight of GDA and 1.5% by weight of a combination of CIT and MIT (in a weight ratio CIT:MIT of 3:1), relative to the total solution weight. […]

Compound	amount of AMP needed to significantly influence the growth rate of the bacteria (Pseudomonas aeruginosa)	biocide enhancement (in words) [1]	biocide enhancement (in words) [2]	biocide enhancement (in words) [3]	biocide enhancement (in words) [4]
CC(C)(N)CO [AMP, 2-amino-2-methyl-1-propanol]	more than 4 000 ppm	enhances the biocide function of BM1; also recorded: enhances the biocide function of BM2	enhances the biocide function of BM2	–	–
NCCO [MEA, 2-aminoethanol]	–	–	enhances the biocide function of BM2	enhances the biocide function of OPP	enhances the biocide function of BM1
